In patent publication US20030129629A1, “Methods and compositions for the identification, assessment, prevention, and therapy of human cancers” (Millennium Pharmaceuticals, Inc., priority 2000, published 2003):
Like-named read-outs stand apart in the source and are kept apart here.

Tests used:
tumor = conditions: animal models; cited from earlier work
[1] = tested on: 60 cancer cell lines (NCI 60 cancer cell line series); test: NCI-DTP in vitro cancer screen, sulforhodamine B (SRB) growth inhibition, 48 hour exposure; assay type: cell-based, human
In short: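 NCI-DTP panel of 60 cancer cell lines plated day 0 at line-specific densities, exposed from day 1 to compound at 5 ten-fold-spaced doses in duplicate wells. After 48 h, cell mass stained with sulforhodamine B; −log GI50 derived from dose–response curves, averaged, and classed Low, Medium or High sensitivity.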

[2] = tested on: 60 cancer cell lines (NCI 60 cancer cell line series); conditions: cited from earlier work

In the case of `CC(=O)O[C@@]12CO[C@@H]1C[C@H](O)[C@@]1(C)C(=O)[C@H](O)C3=C(C)[C@@H](OC(=O)[C@H](O)[C@@H](NC(=O)OC(C)(C)C)c4ccccc4)C[C@@](O)([C@@H](OC(=O)c4ccccc4)[C@H]21)C3(C)C` [Taxotere, docetaxel], the anti-tumor activity (tumor) is listed as “good anti-tumor activity”.
For `N.N.[Cl][Pt][Cl]` [cisplatin, cis-Diamminedichloroplatinum (II), reference compound], the “classification of cell line as Low(1), Medium(2), High(3) sensitivity to compound” value (“classification of cell line” below) ([1]; Breast BT-549 CL5013) was 2, the “classification of cell line” value ([1]; Breast HS-578T CL5006) was 2 and the “classification of cell line” value ([1]; Breast MCF7/ADRr CL5002) was 2. For the same compound, the “classification of cell line” value ([1]; Breast MDA-MB-231 CL5005) was 1, the “classification of cell line” value ([1]; Breast MDA-N CL5012) was 2 and the “classification of cell line” value ([1]; Breast T-47D CL5014) was 1. The “classification of cell line” value ([1]; CNS SF-268 CL12014) was 3, the “classification of cell line” value ([1]; CNS SF-539 CL12016) was 2 and the “classification of cell line” value ([1]; CNS SNB-75(I) CL12005) was 2. For the same compound, the “classification of cell line” value ([1]; CNS U251(I) CL12009) was 2, the “classification of cell line” value ([1]; Colon COLO-250 CL4010) was 1 and the “classification of cell line” value ([1]; Colon HCC-2998 CL4002) was 2. For the same compound, the “classification of cell line” value ([1]; Colon HCT-15 CL4015) was 1, the “classification of cell line” value ([1]; Colon HT29(I) CL4001) was 1 and the “classification of cell line” value ([1]; Colon SW-620 CL4009) was 2. The “classification of cell line” value ([1]; Leukemia HL-60(I) CL7008) was 3, the “classification of cell line” value ([1]; Leukemia K562(I) CL7005) was 2 and the “classification of cell line” value ([1]; Leukemia RPMI-8226(I) CL7010) was 2. The “classification of cell line” value ([1]; Melanoma LOX IMVI CL10001) was 3, the “classification of cell line” value ([1]; Melanoma M14 CL10014) was 2 and the “classification of cell line” value ([1]; Melanoma SK-MEL-28 CL10008) was 2. For the same compound, the “sensitivity classification Low(1)/Medium(2)/High(3)” value ([1]; NSCLC NCI-H23(I) CL1001) was 3, the “sensitivity classification Low(1)/Medium(2)/High(3)” value ([1]; NSCLC NCI-H460 CL1021) was 3 and the “sensitivity classification Low(1)/Medium(2)/High(3)” value ([1]; NSCLC NCI-H522 CL1003) was 2. For the same compound, the “sensitivity classification Low(1)/Medium(2)/High(3)” value ([1]; Ovarian IGROV1 CL6010) was 2, the “sensitivity classification Low(1)/Medium(2)/High(3)” value ([1]; Ovarian OVCAR-4 CL6002) was 2 and the “sensitivity classification Low(1)/Medium(2)/High(3)” value ([1]; Ovarian OVCAR-5 CL6003) was 2. The “sensitivity classification Low(1)/Medium(2)/High(3)” value ([1]; Ovarian OVCAR-8 CL6005) was 2, the “sensitivity classification Low(1)/Medium(2)/High(3)” value ([1]; Prostate DU-145 CL11003) was 2 and the “sensitivity classification Low(1)/Medium(2)/High(3)” value ([1]; Renal A498 CL9013) was 1. The “sensitivity classification Low(1)/Medium(2)/High(3)” value ([1]; Renal RXF-393 CL9016) was 2, the “sensitivity classification Low(1)/Medium(2)/High(3)” value ([1]; Renal UO-31 CL9004) was 2 and the “−Log (GI50)” value ([2]; Breast MCF7(I) CL5001) was 5.5. For the same compound, the “−Log (GI50)” value ([2]; Ovarian SK-OV-3 CL6011) was 5.2.
In the case of Bleomycin, the “classification of cell line” value ([1]; Breast MCF7(I) CL5001) is reported as 2, the “classification of cell line” value ([1]; Breast MCF7/ADRr CL5002) is reported as 2 and the “classification of cell line” value ([1]; Breast MDA-MB-231 CL5005) is reported as 1. The “classification of cell line” value ([1]; Breast MDA-MB-435 CL5011) was 1, the “classification of cell line” value ([1]; Breast MDA-N CL5012) was 1 and the “classification of cell line” value ([1]; Breast T-47D CL5014) was 2. For the same compound, the “classification of cell line” value ([1]; CNS SF-268 CL12014) was 2, the “classification of cell line” value ([1]; CNS SF-295 CL12015) was 3 and the “classification of cell line” value ([1]; CNS SF-539 CL12016) was 3. For the same compound, the “classification of cell line” value ([1]; CNS SNB-19 CL12002) was 2, the “classification of cell line” value ([1]; CNS SNB-75(I) CL12005) was 2 and the “classification of cell line” value ([1]; CNS U251(I) CL12009) was 2. The “classification of cell line” value ([1]; Colon COLO-250 CL4010) was 2, the “classification of cell line” value ([1]; Colon HCT-15 CL4015) was 2 and the “classification of cell line” value ([1]; Colon HCT-116 CL4003) was 2. The “classification of cell line” value ([1]; Colon HT29(I) CL4001) was 1, the “classification of cell line” value ([1]; Colon KM12 CL4017) was 1 and the “classification of cell line” value ([1]; Colon SW-620 CL4009) was 2. For the same compound, the “classification of cell line” value ([1]; Leukemia CCRF-CEM(I) CL7003) was 2, the “classification of cell line” value ([1]; Leukemia HL-60(I) CL7008) was 2 and the “classification of cell line” value ([1]; Leukemia K562(I) CL7005) was 2. The “classification of cell line” value ([1]; Leukemia MOLT-4 CL7006) was 2, the “classification of cell line” value ([1]; Leukemia SR CL7019) was 3 and the “classification of cell line” value ([1]; Melanoma LOX IMVI CL10001) was 3. For the same compound, the “classification of cell line” value ([1]; Melanoma M14 CL10014) was 2, the “classification of cell line” value ([1]; Melanoma MALME-3M CL10002) was 2 and the “classification of cell line” value ([1]; Melanoma SK-MEL-2 CL10005) was 1. The “classification of cell line” value ([1]; Melanoma SK-MEL-28 CL10008) was 1, the “sensitivity classification Low(1)/Medium(2)/High(3)” value ([1]; NSCLC NCI-H23(I) CL1001) was 2 and the “sensitivity classification Low(1)/Medium(2)/High(3)” value ([1]; NSCLC NCI-H332M CL1017) was 1. The “sensitivity classification Low(1)/Medium(2)/High(3)” value ([1]; NSCLC NCI-H522 CL1003) was 2, the “sensitivity classification Low(1)/Medium(2)/High(3)” value ([1]; Ovarian IGROV1 CL6010) was 2 and the “sensitivity classification Low(1)/Medium(2)/High(3)” value ([1]; Ovarian OVCAR-3 CL6001) was 2. For the same compound, the “sensitivity classification Low(1)/Medium(2)/High(3)” value ([1]; Ovarian OVCAR-4 CL6002) was 2, the “sensitivity classification Low(1)/Medium(2)/High(3)” value ([1]; Ovarian OVCAR-5 CL6003) was 2 and the “sensitivity classification Low(1)/Medium(2)/High(3)” value ([1]; Ovarian OVCAR-8 CL6005) was 2. For the same compound, the “sensitivity classification Low(1)/Medium(2)/High(3)” value ([1]; Ovarian SK-OV-3 CL6011) was 2, the “sensitivity classification Low(1)/Medium(2)/High(3)” value ([1]; Prostate DU-145 CL11003) was 2 and the “sensitivity classification Low(1)/Medium(2)/High(3)” value ([1]; Prostate PC-3(I) CL11001) was 2. The “sensitivity classification Low(1)/Medium(2)/High(3)” value ([1]; Renal 786-0 CL9018) was 2, the “sensitivity classification Low(1)/Medium(2)/High(3)” value ([1]; Renal A498 CL9013) was 2 and the “sensitivity classification Low(1)/Medium(2)/High(3)” value ([1]; Renal ACHN CL9023) was 3. The “sensitivity classification Low(1)/Medium(2)/High(3)” value ([1]; Renal SN12C CL9008) was 2, the “sensitivity classification Low(1)/Medium(2)/High(3)” value ([1]; Renal TK10 CL9024) was 1 and the “−Log (GI50)” value ([2]; CNS SF-539 CL12016) was 7.7. For the same compound, the “−Log (GI50)” value ([2]; Melanoma LOX IMVI CL10001) was 6.8 and the “−Log (GI50)” value ([2]; Ovarian OVCAR-3 CL6001) was 5.3.
